{"source": "patent US8367075B2", "about": "“Synergistic combination and method thereof” (Indian Institute of Science, priority 2010, dated 2013)", "key": {"Sp2/0 myeloma": {"test_system": "Sp2/0 myeloma", "experimental": "BALB/c male mice, aged 6-8 weeks and weighing ˜18-25 g, are procured from the Central Animal Facility, Indian Institute of Science, Bangalore. All mice received care according to institutional guidelines and are maintained under controlled conditions and fed with a standard diet.\n(§1) Sp2/0 cells, a myeloma cell line, is grown in T175 flasks in IMDM complete medium supplemented with 10% fetal bovine serum, 2 mM L-glutamine, 100 U/ml penicillin, 100 μg/ml streptomycin, 10% nonessential amino acids, 10% HEPES, 10% sodium pyruvate, 50 μM 2-ME, 10 μg/ml gentamycin in a humidified atmosphere of 5% CO2 at 37° C.\nAn experimental syngeneic tumor model using the myeloma, Sp2/0 in BALB/c mice is studied. […] Different amounts of cells are washed and injected s.c. to establish the cell numbers that need to be injected to reproducibly display solid tumors within two weeks. Mice are sacrificed once the tumors reach a large size to avoid distress. Tumor volume is monitored on the mentioned days and calculated with the formula, V=a×b^2/2, where a is the longest and b is perpendicular to it, are measured on the surface of the tumor with vernier calipers.\nBALB/c mice (5 per group) of 6 to 8 weeks of age are subcutaneously injected with Sp2/0 myeloma cells (˜10×10^6 cells/mouse). Thereafter, mice are intradermally injected with Mycobacterium indicus pranii (˜5×10^8) either 1 day prior to or 3 or 6 days post-inoculation of tumor cells. Tumor volume is estimated on 9th, 12th and 14th day of tumor inoculation. Vehicle alone (0.1 ml of PBS) is used as control and intradermally injected 3 days after administration of cells.\nNext, the optimum dose of Mycobacterium indicus pranii required for reducing the tumor size and delaying the appearance of tumors is titrated. BALB/c mice (5 per group) of 6 to 8 weeks of age are subcutaneously injected with Sp2/0 Myeloma cells (˜10×10^6 cells/mouse). Mice are intradermally injected with different doses of Mycobacterium indicus pranii (5×10^3, 5×10^5, 5×10^7 and 5×10^8) 3 days post-inoculation of tumor cells. Tumor volume is estimated on the 9th, 12th and 14th day of tumor inoculation. Vehicle alone (0.1 ml of PBS) is used as control and intradermally injected 3 days after administration of cells.\nBALB/c mice are intraperitoneally injected with three different doses of Cyclophosphamide, Indomethacin and RU486 four days after implantation of Sp2/0 cells. The doses of Cyclophosphamide, Indomethacin and RU486 are chosen based on that administered to mice and the standardization of the same in the Sp2/0 tumor model is depicted in FIG. 4. BALB/c mice (5 per group) of 6 to 8 weeks of age are subcutaneously injected with Sp2/0 myeloma cells (˜10×10^6 cells/mouse). The mice are then intraperitoneally injected with different doses of either Cyclophosphamide (5, 15 or 100 mg/Kg body weight/mouse) or Indomethacin (0.1, 1 or 10 mg/Kg body weight/mouse) or RU486 (0.1, 1 or 5 mg/Kg body weight/mouse), 4 days post-inoculation of tumor cells. Tumor volume is estimated on the 9th, 12th and 14th day after tumor inoculation. Vehicle alone (0.5 ml of PBS) is used as control and intradermally injected 4 days after administration of cells.\nBALB/c mice (5 per group) of 6 to 8 weeks of age are subcutaneously injected with Sp2/0 myeloma cells (˜10×10^6 cells/mouse). Four groups of mice are intradermally injected with Mycobacterium indicus pranii (˜5×10^8) 3 days post-inoculation of tumor cells. Three groups of Mycobacterium indicus pranii injected mice are intraperitoneally injected with Cyclophosphamide (15 mg/Kg b. wt.), Indomethacin (1 mg/Kg b. wt.) and RU486 (1 mg/Kg b. wt.) on the next day."}, "[1]": {"test_system": "B-cell malignancies such as Multiple myeloma, Solitary plasmacytoma and Plasma cell leukemia", "experiment": "Mice with B-cell malignancies treated with MIP, Cyclophosphamide or both (Conclusion)", "assay_type": "in vivo", "details": "MIP ~5×10^8 intradermal and/or Cyclophosphamide 15 mg/Kg i.p. next day; compared with initial tumor size", "experimental": "The synergistic combination of Cyclophosphamide and Mycobacterium indicus pranii is administered to mice detected with B-cell malignancies such as Multiple myeloma, Solitary plasmacytoma and Plasma cell leukemia. The experiment is conducted mainly on mice which have been detected with said myelomas. The mice are initially examined and the tumor growth and size approximately determined. The mice are then divided into groups so that 5 mice form a group. One mice group is subjected to only Mycobacterium indicus pranii treatment and another group to only Cyclophosphamide treatment. The third group of mice is subjected to a treatment of Mycobacterium indicus pranii along with Cyclophosphamide. This third group of mice are initially intradermally injected with Mycobacterium indicus pranii at a concentration range of ˜5×10^8 cells. […] The mice are then re-examined and the tumor volume estimated on different days after Mycobacterium indicus pranii administration."}, "EL4 thymoma": {"test_system": "EL4 thymoma", "experiment": "EL4 thymoma subcutaneous tumor model in C57BL/6 mice (tumor volume)", "assay_type": "in vivo", "experimental": "as §1, with “EL4” for “Sp2/0”, “thymoma” for “myeloma”, “T75” for “T175”, “RPMI” for “IMDM”\nC57BL/6 mice (5 per group) of 6 to 8 weeks of age are injected subcutaneously with EL4 […] cells (˜0.5×10^6 cells/mouse). Two groups of mice are intradermally injected with Mycobacterium indicus pranii (˜5×10^8) either 3 or 7 days post-inoculation of tumor cells. Two groups of mice one injected previously with MIP and another uninjected are intraperitoneally injected with 15 mg/Kg body weight of Cyclophosphamide on the next day. Tumor volume is estimated in the three groups of mice on the 11th, 14th and 17th day after tumor inoculation. This has been depicted in FIG. 13. Vehicle alone (0.1 ml of PBS) is used as control and intradermally injected 7 days after administration of cells."}}, "note": "“Also recorded” adds a separate entry of the source. Like-named read-outs stand apart in the source and are kept apart here.", "data": [{"compound": "O=P1(N(CCCl)CCCl)NCCCO1", "note": "(stereo not shown) [Cyclophosphamide]", "values": [{"measurement": "tumor progression", "setting": "Sp2/0 myeloma; 5 mg/Kg body weight i.p. day 4, alone", "result": "not able to reduce tumor progression"}, {"measurement": "tumor volume / tumor progression", "setting": "Sp2/0 myeloma; 15 mg/Kg b. wt. i.p. day 4, alone", "result": "not able to sufficiently prevent tumor progression; also recorded: showed some reduction in tumor volume"}, {"measurement": "tumor volume", "setting": "Sp2/0 myeloma; 15 mg/Kg b. wt. i.p. day 8, alone", "result": "showed some reduction in tumor volume; also recorded: unable to induce any effect on tumor reduction"}, {"measurement": "toxicity to mice", "setting": "Sp2/0 myeloma; 50 mg/Kg b. wt. i.p.", "result": "toxic to mice"}, {"measurement": "tumor volume", "setting": "Sp2/0 myeloma; 50 mg/Kg b. wt. i.p. day 4, alone", "result": "effective"}, {"measurement": "tumor volume", "setting": "Sp2/0 myeloma; 50 mg/kg i.p. day 8, alone", "result": "significant tumor reduction"}, {"measurement": "effect on the mice (toxicity)", "setting": "Sp2/0 myeloma; 100 mg/Kg body weight i.p. day 4", "result": "reduced body weight and hair loss"}, {"measurement": "tumor progression", "setting": "Sp2/0 myeloma; 100 mg/Kg body weight i.p. day 4, alone", "result": "able to prevent tumor progression to a considerable extent"}, {"measurement": "tumor volume", "setting": "Sp2/0 myeloma; 1, 5 and 15 mg/Kg b. wt. i.p. day 8, alone", "result": "did not significantly reduce tumor volume"}, {"measurement": "tumor volume", "setting": "Sp2/0 myeloma; 1 and 5 mg/Kg b. wt. i.p. day 4, alone", "result": "unable to reduce tumor volume"}, {"measurement": "tumor volume", "setting": "Sp2/0 myeloma; Cyclophosphamide alone on the same day as MIP (day 3), one day prior or one day after", "result": "had no effect on tumor volume"}, {"measurement": "tumor size/volume", "setting": "[1]", "result": "failed to elicit a similar tumor size reduction"}, {"measurement": "tumor reduction", "setting": "EL4 thymoma; 15 mg/Kg body weight i.p. day 4 or day 8, alone", "result": "unable to induce any effect on tumor reduction"}, {"measurement": "tumor size", "setting": "EL4 thymoma; 15 mg/Kg body weight i.p. on day 8, alone, vs PBS", "result": "greater than observed with PBS"}]}, {"compound": "COc1ccc2c(c1)c(CC(=O)O)c(C)n2C(=O)c1ccc(Cl)cc1", "note": "[Indomethacin]", "values": [{"measurement": "tumor volume", "setting": "Sp2/0 myeloma; 0.1, 1 or 10 mg/Kg body weight i.p. day 4, alone, even at the highest dose", "result": "did not show any significant reduction in tumor volume"}, {"measurement": "tumor volume", "setting": "Sp2/0 myeloma; MIP ~5×10^8 intradermal day 3 plus drug i.p. day 4 (Cyclophosphamide 15, Indomethacin 1 or RU486 1 mg/Kg b. wt.)", "result": "seemed to reverse the beneficial effects observed with Mycobacterium indicus pranii"}]}]}
